Experimental data from publication PMC7395068, “The evolution of strategies to minimise the risk of human drug-induced liver injury (DILI) in drug discovery and development” (Archives of Toxicology, 2020).
Where two headings read alike, the source gives them in different places. One block for each molecule: values may come before it.

Experiments:
[1] = tested on: HepaRG spheroids; assay: Combined HCI (HCS) and cellular ATP 3D assay in HepaRG spheroids; settings: for HepaRG <25x Avg Cmax ATP / HepaRG <100x Avg Cmaxu ATP: ATP endpoint; for HepaRG <25x Avg Cmax ATP / HepaRG <25x Avg Cmax HCS / HepaRG <25x Avg Cmax All: cut-off <25x Avg Cmax; for HepaRG <100x Avg Cmaxu ATP / HepaRG <100x Avg Cmaxu HCS / HepaRG <100x Avg Cmaxu All: cut-off <100x Avg Cmaxu; for HepaRG <25x Avg Cmax HCS / HepaRG <100x Avg Cmaxu HCS: HCS endpoints; for HepaRG <25x Avg Cmax All: all endpoints (ATP and HCS); for HepaRG Cmax max All / HepaRG Cmax min All / HepaRG <10 uM All / HepaRG <100x Avg Cmaxu All: all endpoints; for HepaRG Cmax max All: Cmax max used; for HepaRG Cmax min All: Cmax min used; for HepaRG <10 uM All: cut-off <10 uM; for AC50 / minimal effective concentration: Homo sapiens; for HepaRG <25x Avg Cmax ATP / HepaRG <100x Avg Cmaxu ATP / HepaRG <25x Avg Cmax HCS / HepaRG <100x Avg Cmaxu HCS / HepaRG <25x Avg Cmax All / HepaRG Cmax max All / HepaRG Cmax min All / HepaRG <10 uM All / HepaRG <100x Avg Cmaxu All / AC50 / minimal effective concentration: HepaRG; for DILI prediction HepaRG spheroids (HCS-MEC): Microtissue model structural based (HCI), combined HCS and ATP, MEC < 25 × Cmax.tot cut-off
[2] = tested on: hLiMTs; assay: Combined HCI (HCS) and cellular ATP 3D assay in hLiMTs; settings: for hLiMTs <25x Avg Cmax ATP / hLiMTs <100x Avg Cmaxu ATP: ATP endpoint; for hLiMTs <25x Avg Cmax ATP / hLiMTs <25x Avg Cmax HCS / hLiMTs <25x Avg Cmax All: cut-off <25x Avg Cmax; for hLiMTs <100x Avg Cmaxu ATP / hLiMTs <100x Avg Cmaxu HCS / hLiMTs <100x Avg Cmaxu All: cut-off <100x Avg Cmaxu; for hLiMTs <25x Avg Cmax HCS / hLiMTs <100x Avg Cmaxu HCS: HCS endpoints; for hLiMTs <25x Avg Cmax All: all endpoints (ATP and HCS); for hLiMTs Cmax max All / hLiMTs Cmax min All / hLiMTs <10 uM All / hLiMTs <100x Avg Cmaxu All: all endpoints; for hLiMTs Cmax max All: Cmax max used; for hLiMTs Cmax min All: Cmax min used; for hLiMTs <10 uM All: cut-off <10 uM
[3] = tested on: isolated mouse liver mitochondria; settings: In vitro Assay; ref Porceddu 2012; cited from earlier work
[4] = read-out: Human plasma Cmax; total plasma Cmax.tot, median of 9 literature references; cited from earlier work
[5] = plasma free fraction; cited from earlier work
[6] = tested on: human hepatocytes; settings: cited from earlier work
[7] = Plasma free fraction (fu) and unbound Cmax (Cmax,u); type: in vitro ADME, human; settings: unbound plasma Cmax
[8] = tested on: HepG2 cells, primary human hepatocytes; settings: In vitro Assay; ref Garside 2014; cited from earlier work
[9] = tested on: primary human hepatocytes, NIH3T3 fibroblasts, BSEP, CYP3A4; settings: cited from earlier work
[10] = cited from earlier work
[11] = tested on: HepG2 cells; settings: cited from earlier work
[12] = tested on: hLiMTs; settings: cited from earlier work
[13] = tested on: PHH; settings: cited from earlier work
[14] = cited from earlier work; remark: listed apart in the source
[15] = In vitro Assay, ref Schadt 2015
[16] = In vitro Assay, ref Proctor 2017

HepaRG <25x Avg Cmax ATP [1]: +ve
HepaRG <100x Avg Cmaxu ATP [1]: -ve
HepaRG <25x Avg Cmax HCS [1]: +ve
HepaRG <100x Avg Cmaxu HCS [1]: +ve (<100x Avg Cmaxu)
HepaRG <25x Avg Cmax All [1]: +ve
HepaRG Cmax max All [1]: +ve
HepaRG Cmax min All [1]: +ve
HepaRG <10 uM All [1]: -ve
HepaRG <100x Avg Cmaxu All [1]: +ve (<100x Avg Cmaxu)
hLiMTs <25x Avg Cmax ATP [2]: -ve
hLiMTs <100x Avg Cmaxu ATP [2]: -ve
hLiMTs <25x Avg Cmax HCS [2]: -ve
hLiMTs <100x Avg Cmaxu HCS [2]: -ve
hLiMTs <25x Avg Cmax All [2]: -ve
hLiMTs Cmax max All [2]: -ve
hLiMTs Cmax min All [2]: -ve
hLiMTs <10 uM All [2]: -ve
hLiMTs <100x Avg Cmaxu All [2]: -ve
Human plasma Cmax,u [7]: 0.620 µM
Structure (SMILES): CC[C@H]1OC(=O)[C@H](C)[C@@H](O[C@H]2C[C@@](C)(OC)[C@@H](O)[C@H](C)O2)[C@H](C)[C@@H](O[C@@H]2O[C@H](C)C[C@H](N(C)C)[C@H]2O)[C@](C)(O)C[C@@H](C)C(=O)[C@H](C)[C@@H](O)[C@]1(C)O [erythromycin]
AC50 ([1]; read-out: ATP endpoint AC50): 214 µM
minimal effective concentration ([1]; read-out: ATP endpoint MEC): 128 µM
AC50 ([1]; read-out: HCS endpoint AC50): 294 µM
minimal effective concentration ([1]; read-out: HCS endpoint MEC): 38.1 µM
DILI prediction HepaRG spheroids (HCS-MEC) [1]: +VE (MEC < 25 × Cmax.tot cut-off)
DILI prediction hLiMTs (HCS-MEC) ([2]; Microtissue model structural based (HCI), combined HCS and ATP, MEC < 25 × Cmax.tot cut-off): -VE
in vitro data EC2<=1x Cmax [3]: +VE
Cmax [4]: 6.2 µM
fu [5]: 0.100
Structural based (HCI) ([6]; In vitro Assay, ref Xu 2008): -VE
DILI in vitro assay prediction, Xu (2008) ([6]; Structural based (HCI), human hepatocytes, ref Xu et al. 2008): -VE

HepaRG <25x Avg Cmax ATP [1]: -ve
HepaRG <100x Avg Cmaxu ATP [1]: -ve
HepaRG <25x Avg Cmax HCS [1]: -ve
HepaRG <100x Avg Cmaxu HCS [1]: -ve
HepaRG <25x Avg Cmax All [1]: -ve
HepaRG Cmax max All [1]: -ve
HepaRG Cmax min All [1]: -ve
HepaRG <10 uM All [1]: -ve
HepaRG <100x Avg Cmaxu All [1]: -ve
hLiMTs <25x Avg Cmax ATP [2]: -ve
hLiMTs <100x Avg Cmaxu ATP [2]: +ve (<100x Avg Cmaxu)
hLiMTs <25x Avg Cmax HCS [2]: +ve
hLiMTs <100x Avg Cmaxu HCS [2]: +ve (<100x Avg Cmaxu)
hLiMTs <25x Avg Cmax All [2]: +ve
hLiMTs Cmax max All [2]: +ve
hLiMTs Cmax min All [2]: +ve
hLiMTs <10 uM All [2]: -ve
hLiMTs <100x Avg Cmaxu All [2]: +ve (<100x Avg Cmaxu)
Human plasma Cmax,u [7]: 7.743 µM
Structure (SMILES): CN(C)C(=N)N=C(N)N [metformin]
Cluster 1-6 +VE Assay [8]: +VE
DILI in vitro assay prediction, Schadt (2015) ([9]; BSEP & Metabolism based, ref Schadt et al. 2015): -VE
Cellular toxicity (3T3 cells) [9, 15]: -VE
Combined Assay [9, 15]: -VE
GSH adduct HML [9, 15]: -VE
Hepatocyte cellular toxicity [9, 15]: -VE
MitoTox 3T3 [9, 15]: -VE
TDI CYP3A4 [9, 15]: -VE
hBSEP inhibition [9, 15]: -VE
Assigned DILI category ([10]; Chen et al. 2016 or literature alignment, ref Chen et al. 2016): 2
In vivo DILI ([10]; ref Garside 2014): +VE
In vivo DILI ([10]; ref O'Brien 2006): -VE
In vivo DILI ([10]; ref Porceddu 2012): +VE
In vivo DILI ([10]; ref Proctor 2017): +VE
In vivo DILI ([10]; ref Schadt 2015): -VE
DILI prediction HepaRG spheroids (HCS-MEC) [1]: -VE
DILI prediction hLiMTs, HCI alone ([2]; HCS endpoints only, 25 × Cmax.tot cut-off): detection
AC50 ([2]; Homo sapiens, read-out: ATP endpoint AC50): 768 µM
minimal effective concentration ([2]; Homo sapiens, read-out: ATP endpoint MEC): 503 µM
minimal effective concentration ([2]; Homo sapiens, read-out: HCS endpoint MEC): 28.1 µM
DILI prediction hLiMTs, ATP alone ([2]; cellular ATP only, 25 × Cmax.tot cut-off): unpredicted
Structural based (HCI) ([11]; In vitro Assay, ref O'Brien 2006): +VE
DILI in vitro assay prediction, O'Brien (2006) ([11]; Structural based (HCI), HepG2, ref O'Brien et al. 2006): +VE (lowest HCI endpoint IC50 (or in the absence of dose–response < 100 µM) < 30 × total human plasma exposure levels (Cmax.tot))
in vitro data EC2<=1x Cmax [3]: +VE
in vitro data EC20<=2uM [3]: -VE
hLiMTs ATP <100uM [12, 16]: -VE
hLiMTs/100xCmax, Proctor (2017) ([12]; hLiMTs, ATP, IC50 < 100 × Cmax.tot, ref Proctor et al. 2017): -VE
hLiMTs/100uM, Proctor (2017) ([12]; hLiMTs, ATP, IC50 threshold 100 µM, ref Proctor et al. 2017): -VE
Cmax [4]: 7.82 µM
PHH/100xCmax, Proctor (2017) ([13]; 2D PHH, ATP, IC50 < 100 × Cmax.tot, ref Proctor et al. 2017): -VE
PHH/100uM, Proctor (2017) ([13]; 2D PHH, ATP, IC50 threshold 100 µM, ref Proctor et al. 2017): -VE
PHH ATP <100uM [13, 16]: -VE
fu [5]: 0.990
DILI severity category (Chen et al. [2016]) ([14]; LTKB DILIrank category, ref Chen et al. 2016): Less
DILI severity category (Chen 2016) ([14]; human DILI classification, LTKB DILIrank, ref Chen et al. 2016): Less
DILI severity category ([14]; human DILI severity, ref Chen et al.): Less
DILI +VE (5-8), DILI -VE (-4) ([14]; ref Chen 2016): +VE
DILI severity category ([14]; ref Chen 2016): vLess-DILI-Concern
